Columns and labels:
Assay in all cases: Ex vivo KiNativ ATP/ADP probe competition in mouse cortical brain lysates
Assay type in all cases: binding
TAO2 = molecular target: T1, TAO2 (Mus musculus, UniProt Q6ZQ29)
T1 construct: from tissue; host or cells: mouse cortical brain lysate
T1 sequence (Q6ZQ29 1-1240): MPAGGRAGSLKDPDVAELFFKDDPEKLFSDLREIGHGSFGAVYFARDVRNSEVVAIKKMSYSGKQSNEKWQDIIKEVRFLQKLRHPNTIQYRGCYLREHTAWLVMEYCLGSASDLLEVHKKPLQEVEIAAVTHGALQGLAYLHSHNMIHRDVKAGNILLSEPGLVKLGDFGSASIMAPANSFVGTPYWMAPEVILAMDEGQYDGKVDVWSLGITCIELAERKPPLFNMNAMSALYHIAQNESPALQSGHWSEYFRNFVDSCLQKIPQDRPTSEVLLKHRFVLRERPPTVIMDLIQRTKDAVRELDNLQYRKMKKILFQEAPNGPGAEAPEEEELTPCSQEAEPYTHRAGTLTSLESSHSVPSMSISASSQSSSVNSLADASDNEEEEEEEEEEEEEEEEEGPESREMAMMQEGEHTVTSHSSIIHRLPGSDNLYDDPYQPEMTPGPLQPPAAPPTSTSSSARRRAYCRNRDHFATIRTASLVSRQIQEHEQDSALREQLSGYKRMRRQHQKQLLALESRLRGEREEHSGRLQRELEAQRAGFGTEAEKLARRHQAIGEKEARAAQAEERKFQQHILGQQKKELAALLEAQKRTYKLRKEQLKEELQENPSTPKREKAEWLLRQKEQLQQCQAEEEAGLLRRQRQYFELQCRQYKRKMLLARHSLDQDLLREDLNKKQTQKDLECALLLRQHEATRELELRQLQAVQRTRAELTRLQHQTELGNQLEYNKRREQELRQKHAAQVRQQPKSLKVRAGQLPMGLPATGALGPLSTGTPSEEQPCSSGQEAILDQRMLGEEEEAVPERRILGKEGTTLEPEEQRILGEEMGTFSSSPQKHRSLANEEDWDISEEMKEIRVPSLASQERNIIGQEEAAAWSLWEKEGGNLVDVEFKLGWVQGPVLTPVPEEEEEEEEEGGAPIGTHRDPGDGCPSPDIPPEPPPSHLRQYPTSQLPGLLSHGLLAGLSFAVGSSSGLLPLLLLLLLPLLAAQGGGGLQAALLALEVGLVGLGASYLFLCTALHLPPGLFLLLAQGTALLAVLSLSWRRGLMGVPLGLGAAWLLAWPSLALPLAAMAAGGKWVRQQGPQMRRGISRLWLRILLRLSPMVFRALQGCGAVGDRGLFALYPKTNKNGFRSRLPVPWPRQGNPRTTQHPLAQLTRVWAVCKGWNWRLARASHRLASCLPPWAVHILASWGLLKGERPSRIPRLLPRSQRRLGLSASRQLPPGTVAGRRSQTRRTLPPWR

TAO1 = molecular target: T2, TAO1 (Mus musculus, UniProt Q5F2E8); details: TNEVVAIKK; Lys1; ADP probe
T2 construct: from tissue; host or cells: mouse cortical brain lysate
T2 sequence (Q5F2E8 1-1001): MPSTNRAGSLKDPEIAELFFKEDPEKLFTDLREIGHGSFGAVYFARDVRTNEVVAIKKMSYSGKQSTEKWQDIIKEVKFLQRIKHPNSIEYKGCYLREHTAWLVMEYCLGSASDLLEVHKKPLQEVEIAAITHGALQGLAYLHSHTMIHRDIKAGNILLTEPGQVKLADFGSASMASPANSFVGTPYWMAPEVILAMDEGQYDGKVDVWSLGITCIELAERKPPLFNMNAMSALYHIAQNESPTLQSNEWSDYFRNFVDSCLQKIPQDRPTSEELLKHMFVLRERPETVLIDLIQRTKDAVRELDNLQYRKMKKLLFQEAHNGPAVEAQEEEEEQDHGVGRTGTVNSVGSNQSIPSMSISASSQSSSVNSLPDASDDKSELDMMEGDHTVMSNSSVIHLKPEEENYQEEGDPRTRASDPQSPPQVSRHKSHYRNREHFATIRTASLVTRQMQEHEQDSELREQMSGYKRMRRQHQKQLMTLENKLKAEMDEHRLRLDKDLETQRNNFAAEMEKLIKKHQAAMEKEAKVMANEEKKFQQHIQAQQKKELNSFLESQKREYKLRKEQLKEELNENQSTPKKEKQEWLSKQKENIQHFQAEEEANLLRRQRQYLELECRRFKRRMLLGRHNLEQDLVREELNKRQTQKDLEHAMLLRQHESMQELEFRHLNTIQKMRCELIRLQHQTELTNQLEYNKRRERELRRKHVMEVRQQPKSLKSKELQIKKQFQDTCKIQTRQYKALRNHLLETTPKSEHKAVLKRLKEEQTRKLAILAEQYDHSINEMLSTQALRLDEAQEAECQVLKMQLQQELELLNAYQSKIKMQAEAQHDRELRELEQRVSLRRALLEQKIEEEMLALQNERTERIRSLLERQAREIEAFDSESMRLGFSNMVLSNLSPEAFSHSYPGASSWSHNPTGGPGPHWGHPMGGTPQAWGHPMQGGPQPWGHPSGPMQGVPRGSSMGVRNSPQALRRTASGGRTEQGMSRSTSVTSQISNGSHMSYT

FES = molecular target: T3, FES (Mus musculus, UniProt P16879); details: LRADNTPVAVKSCR, Lys1
T3 construct: homogenized brain lysates were labeled with Desthiobiotin-ADP-acyl phosphate probe; from tissue; host or cells: mouse cortical brain lysate

FER = molecular target: T4, FER (Mus musculus, UniProt P70451)
T4 construct: from tissue; host or cells: mouse cortical brain lysate

TTBK1, TTBK2 = details: DIKPSNFAMGR; Lys2; ADP probe

T4 sequence (P70451 whole entry): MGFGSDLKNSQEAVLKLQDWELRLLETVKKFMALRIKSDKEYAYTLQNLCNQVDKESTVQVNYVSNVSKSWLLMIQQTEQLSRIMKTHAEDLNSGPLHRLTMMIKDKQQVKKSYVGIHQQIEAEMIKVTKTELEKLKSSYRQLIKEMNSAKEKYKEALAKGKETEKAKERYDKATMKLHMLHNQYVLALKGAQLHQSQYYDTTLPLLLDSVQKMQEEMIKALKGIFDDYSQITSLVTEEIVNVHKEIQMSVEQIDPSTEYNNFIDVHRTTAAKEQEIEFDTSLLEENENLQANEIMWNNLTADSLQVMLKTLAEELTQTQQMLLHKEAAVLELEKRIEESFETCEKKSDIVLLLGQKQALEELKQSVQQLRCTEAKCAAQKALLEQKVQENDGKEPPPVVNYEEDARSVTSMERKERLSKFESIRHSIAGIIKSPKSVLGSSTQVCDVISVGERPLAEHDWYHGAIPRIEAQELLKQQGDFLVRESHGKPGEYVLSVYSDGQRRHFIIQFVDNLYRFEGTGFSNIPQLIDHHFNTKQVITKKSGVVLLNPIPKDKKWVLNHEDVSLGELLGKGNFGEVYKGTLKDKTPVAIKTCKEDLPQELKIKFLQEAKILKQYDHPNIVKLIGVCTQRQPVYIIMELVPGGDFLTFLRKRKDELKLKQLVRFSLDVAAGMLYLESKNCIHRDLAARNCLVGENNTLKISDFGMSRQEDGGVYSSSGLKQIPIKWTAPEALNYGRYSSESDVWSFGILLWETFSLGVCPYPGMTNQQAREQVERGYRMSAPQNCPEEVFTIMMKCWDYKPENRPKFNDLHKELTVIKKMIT
T3 sequence (P16879 whole entry): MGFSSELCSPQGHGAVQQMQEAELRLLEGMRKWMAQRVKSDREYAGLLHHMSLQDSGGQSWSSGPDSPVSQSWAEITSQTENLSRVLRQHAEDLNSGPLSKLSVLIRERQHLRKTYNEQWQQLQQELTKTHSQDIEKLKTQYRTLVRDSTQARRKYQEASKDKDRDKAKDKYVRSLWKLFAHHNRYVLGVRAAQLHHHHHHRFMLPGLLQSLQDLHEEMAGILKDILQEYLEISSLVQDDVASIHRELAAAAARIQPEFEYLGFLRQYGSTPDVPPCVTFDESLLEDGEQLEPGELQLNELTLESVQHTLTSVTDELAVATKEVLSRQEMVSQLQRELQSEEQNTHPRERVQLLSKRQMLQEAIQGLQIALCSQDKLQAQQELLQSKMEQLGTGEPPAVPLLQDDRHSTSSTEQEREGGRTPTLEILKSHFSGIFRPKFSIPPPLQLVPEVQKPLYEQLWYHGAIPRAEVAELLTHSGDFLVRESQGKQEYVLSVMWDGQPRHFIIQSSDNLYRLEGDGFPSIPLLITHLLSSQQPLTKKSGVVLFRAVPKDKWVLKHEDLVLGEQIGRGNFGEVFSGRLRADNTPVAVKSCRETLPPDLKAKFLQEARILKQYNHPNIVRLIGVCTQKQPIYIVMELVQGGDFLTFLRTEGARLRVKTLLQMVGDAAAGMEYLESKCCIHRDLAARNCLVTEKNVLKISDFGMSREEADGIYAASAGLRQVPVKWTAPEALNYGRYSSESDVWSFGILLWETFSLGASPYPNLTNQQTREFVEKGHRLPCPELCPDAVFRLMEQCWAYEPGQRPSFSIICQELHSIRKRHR

SMILES: CCC(C)(O)C#Cc1cc2c(ccn2-c2ccnc(N)n2)cn1 (centres unmarked) [BIIB-TTBK1i]
- Percent Inhibition at 1μM (TAO2; DVKAGNILLSEPGLVK, Lys2, ADP probe): 82.6%
- Percent Inhibition at 1μM (TAO2; DVKAGNILLSEPGLVK, Lys2, ATP probe): 93.2%
- Percent Inhibition at 1μM (TAO2; NSEVVAIKK, Lys1, ADP probe): 86.4%
- Percent Inhibition at 1μM (TAO1): 75.9%
- Percent Inhibition at 1μM (FES; ADP probe): 79.8%
- Percent Inhibition at 1μM (FES; ATP probe): 61.2%
- Percent Inhibition at 1μM (FER; QEDGGVYSSSGLKQIPIK, Activation Loop, ADP probe): 66.7%
- Percent Inhibition at 1μM (FER; QEDGGVYSSSGLKQIPIK, Protein Kinase Domain, ATP probe): 69.4%
- Percent Inhibition at 1μM (FER; TPVAIKTCKEDLPQELK, Lys1, ADP probe): 79.1%
- Percent Inhibition at 1μM (FER; TPVAIKTCKEDLPQELK, Lys1, ATP probe): 74.9%
- Percent Inhibition at 1μM (TTBK1, TTBK2): 95.8%

From publication PMC7138307 (PLoS ONE, 2020)
